Consider three substances from patent US8936807B2, “Use of the cathelicidin LL-37 and derivatives thereof for wound healing” (Lipopeptide AB, priority 2003, dated 2015).

What all share (type): cell-based, human
Assay [1] relates to HaCat cells. Kind of assay: Proliferation of HaCat cells assessed by 3H-Thymidine incorporation. The note with it: 10% serum, 96 Hours; for Increased Proliferation (%): vs control 0 μg/ml. The protocol:
HaCat cells were cultured in medium (DMEM, +10% FCS and PEST). HaCaT cells were plated in 96 well plates (Falcon, USA) at the concentration of 2000 cells per well. Cells were plated at −48 hours and stimulated with different concen-trations of synthetic LL-37, LL-36, and LL-38 peptide by hour 0 and after 48 hours.
The testing was done in one experiment with 6 wells in each condition. […] of ^3H-Thymidine (THYMIDINE, [METHYL-^3H]-740.0 GBq/mmol (20.00 Ci/mmol) 1.0 ml of Ethanol:Water, 7:3, Perkin Elmer Life Sciences Inc. Boston Mass., USA) was added to each well and incubated for 12-17 hours. Proliferation was evaluated by ^3H-Thymidine incorporation a liquid scintilator (MicroBeta Perkin Elmer Life Sciences Inc. Boston Mass., USA) after 72 and 96 hours.
On the technique in general: Dividing cells build labelled thymidine or BrdU into new DNA.

Assay [2] deals with HaCat cells. Kind of assay: Proliferation of HaCat cells assessed by flowcytometry and Trypan-Blue. The following applies: EGF 1.7 nM, 10% serum. The protocol: HaCat cells were used for these experiments. HaCat cells are an immortalized human keratinocyte cell line (Boukamp et al., J Cell Biol 106:761-771, 1988), which is suitable for experimental keratinocyte research. HaCat cells were cultured in medium (DMEM, +10% FCS and PEST). Both types of cell cultures were treated with synthetic, bioactive LL-37 (lot YS 5253). […] Cells were harvested at different time-points (24 h, 48 h, 72 h and 96 h) and counted by flowcytometry (Becton-Dickinson) and stained by Trypan-Blue to evaluate viability. […] Proliferation and viability were also ascertained by measuring mitochondrial activity (WST-1, Roche, Cook et al. Anal Biochem 179:1-7, 1989).

The test system of assay [3] is HaCat cells. Kind of assay: Proliferation and viability of HaCat cells measured by mitochondrial activity (WST-1). The note with it: EGF 1.7 nM, 10% serum, 48 h. The protocol: HaCat cells were used for these experiments. HaCat cells are an immortalized human keratinocyte cell line (Boukamp et al., J Cell Biol 106:761-771, 1988), which is suitable for experimental keratinocyte research. HaCat cells were cultured in medium (DMEM, +10% FCS and PEST). Both types of cell cultures were treated with synthetic, bioactive LL-37 (lot YS 5253). In addition a mixture of LL-37 (114 μg/ml) and CPL-Galactolipid (0.2%) in medium containing serum at either 2 or 10% was added to evaluate the capacity to increase proliferation and inhibit cytotoxicity. Cells were harvested at different time-points (24 h, 48 h, 72 h and 96 h) and counted by flowcytometry (Becton-Dickinson) and stained by Trypan-Blue to evaluate viability. […] Proliferation and viability were also ascertained by measuring mitochondrial activity (WST-1, Roche, Cook et al. Anal Biochem 179:1-7, 1989).
(Tetrazolium dyes change colour on reduction, which living cells bring about.)

Take “LLGDFFRKSKEKIGKEFKRIVQRIKDFLRNLVPRTESS (Synthetic Peptide LL-38)”: the “Counts Per Minute (Mean)” value with HaCat cells [1] (LL-38 1.00 μg/ml) worked out at 82008 Counts Per Minute; with HaCat cells [1] (LL-38 5.00 μg/ml) it was 68694 Counts Per Minute; with HaCat cells [1] (LL-38 10.00 μg/ml) it was 57293 Counts Per Minute; in the assay with HaCat cells [1] (LL-38 25.00 μg/ml) it was 54294 Counts Per Minute; with HaCat cells [1] (LL-38 50.00 μg/ml), 48701 Counts Per Minute. In addition, the “Increased Proliferation (%)” value in the assay on HaCat cells [1] (LL-38 1.00 μg/ml) is 4%; with HaCat cells [1] (LL-38 5.00 μg/ml), −13%; in the assay on HaCat cells [1] (LL-38 10.00 μg/ml), −28%; in the assay on HaCat cells [1] (LL-38 25.00 μg/ml), −31%; in the assay on HaCat cells [1] (LL-38 50.00 μg/ml), −39%.
Consider “EGF: EGF, the golden standard for epithelial cell proliferation, used at 1.7 nM [reference compound]”, for which the “Number of Cells (Mean)” value was found to be 42000 with HaCat cells [2] (96 h); 85050 in the assay with HaCat cells [2] (no lipid, 72 h); 87640 in the assay on HaCat cells [2] (with lipid 0.2%, 72 h). For the same substance, the “Increased Proliferation (%)” value in the assay with HaCat cells [2] (96 h, vs baseline (-EGF)) was 30%; in the assay on HaCat cells [2] (no lipid, 72 h, vs baseline), 54%; in the assay with HaCat cells [2] (with lipid 0.2%, 72 h, vs baseline), 58%; with HaCat cells [3] (vs baseline (-EGF)), 77%. Further, the Absorbance in the assay on HaCat cells [3] came to 1.107.
For the substance “LLGDFFRKSKEKIGKEFKRIVQRIKDFLRNLVPRTE (Synthetic Peptide LL-36)”, the “Counts Per Minute (Mean)” value with HaCat cells [1] (LL-36 1.00 μg/ml) amounted to 86253 Counts Per Minute; in the assay with HaCat cells [1] (LL-36 5.00 μg/ml) it was 116381 Counts Per Minute; in the assay on HaCat cells [1] (LL-36 10.00 μg/ml), 70157 Counts Per Minute; in the assay on HaCat cells [1] (LL-36 25.00 μg/ml), 72674 Counts Per Minute; with HaCat cells [1] (LL-36 50.00 μg/ml) it was 68560 Counts Per Minute. In addition, the “Increased Proliferation (%)” value with HaCat cells [1] (LL-36 1.00 μg/ml) is on record as 24%; with HaCat cells [1] (LL-36 5.00 μg/ml) it was 68%; in the assay with HaCat cells [1] (LL-36 10.00 μg/ml), 1%; with HaCat cells [1] (LL-36 25.00 μg/ml), 5%; in the assay with HaCat cells [1] (LL-36 50.00 μg/ml), -1%.
